Where a SMILES comes first, the peptide text is derived from it.

A word on the EC50: it is the concentration giving half of the maximal effect. A higher EC50 goes with weaker potency. A word on the viability: it is a read-out of living cells in per cent, often relative to untreated cells. What is called Kd is the constant that tells how readily two partners part at equilibrium.

Data set [1] has as its target Wnt-responsive promoter (TCF/LEF). Put plainly: Wnt-dependent luciferase reporter assay. The class given is cell-based, murine. The method, boiled down: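 Murine 3T3 fibroblasts carrying a TCF/LEF-driven luciferase reporter, stimulated with Wnt3a in the presence of increasing peptide concentrations or vehicle. Luminescence inhibition gave EC50 values in uM.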
For orientation: Reporter assays use an easily measured gene product as a stand-in for the process of interest.

For data set [2] the following is noted: % Viability non-Wnt responsive cells.
Data set [3] has as its target T1, β-catenin (Homo sapiens, UniProt P35222).
T1 sequence (P35222 1-781): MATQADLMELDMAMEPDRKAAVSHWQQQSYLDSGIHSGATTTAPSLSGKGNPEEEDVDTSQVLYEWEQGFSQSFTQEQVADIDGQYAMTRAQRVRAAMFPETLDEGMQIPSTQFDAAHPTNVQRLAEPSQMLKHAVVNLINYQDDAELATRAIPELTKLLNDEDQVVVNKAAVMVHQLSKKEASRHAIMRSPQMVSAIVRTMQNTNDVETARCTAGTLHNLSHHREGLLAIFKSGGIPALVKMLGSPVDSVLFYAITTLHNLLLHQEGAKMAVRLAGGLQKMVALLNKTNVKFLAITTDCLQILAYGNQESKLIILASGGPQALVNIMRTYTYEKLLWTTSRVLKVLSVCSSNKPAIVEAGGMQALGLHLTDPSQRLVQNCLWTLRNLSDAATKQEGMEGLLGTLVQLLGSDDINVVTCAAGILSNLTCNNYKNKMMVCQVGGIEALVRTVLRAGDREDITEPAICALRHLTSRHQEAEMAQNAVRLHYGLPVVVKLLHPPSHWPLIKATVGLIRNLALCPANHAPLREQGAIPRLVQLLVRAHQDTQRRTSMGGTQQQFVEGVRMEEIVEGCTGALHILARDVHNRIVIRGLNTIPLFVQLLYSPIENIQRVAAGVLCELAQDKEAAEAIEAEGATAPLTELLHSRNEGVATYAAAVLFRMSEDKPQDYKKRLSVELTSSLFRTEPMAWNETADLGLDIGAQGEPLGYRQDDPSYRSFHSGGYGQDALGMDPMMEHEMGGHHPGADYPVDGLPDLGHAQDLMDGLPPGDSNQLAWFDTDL
Put plainly: KD50 measurement using competitive fluorescence polarization (FP) with labelled TCF4. The class given is binding. The settings on record: fluorescence polarization, β-catenin; for Kd: read-out: β-Cat FP KD. The method, boiled down:
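First, β-catenin at 100 nM is mixed with 5 nM labelled TCF4 at room temperature. Next, compound is added across serial dilutions (10 nM to 30 uM). Finally, fluorescence polarization is measured (ex 470 nm, em 520 nm); experiments are done three times.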
On the technique in general: Fluorescence polarisation rises when a labelled molecule tumbles more slowly, as on binding a larger partner.

Consider `CSCC[C@H](NC(=O)[C@H](CCCNC(=N)N)NC(=O)[C@H](CO)NC(=O)[C@@H](N)CCSC)C(=O)N[C@@H](Cc1c[nH]c2ccccc12)C(=O)N[C@@H](Cc1ccccc1)C(=O)N[C@@H](CC(C)C)C(=O)N[C@@H](Cc1ccccc1)C(=O)N[C@@H](CO)C(=O)N[C@@H](Cc1ccccc1)C(=O)N[C@@H](Cc1c[nH]c2ccccc12)C(=O)NCC(=O)O` [compound 63] (H-MSRMWFLFSFWG-OH), for which the EC50 in data set [1] is under 7.5 µM. In addition, the viability in data set [2] turned out to be 97.9%. The Kd in data set [3] was over 30 µM.
`CC[C@H](C)[C@H](NC(=O)[C@H](CC(C)C)NC(=O)[C@H](Cc1ccccc1)NC(=O)[C@H](Cc1c[nH]c2ccccc12)NC(=O)[C@@H](NC(=O)[C@H](CCCNC(=N)N)NC(=O)[C@H](CO)NC(=O)[C@@H](N)CCSC)C(C)C)C(=O)N[C@@H](CO)C(=O)N[C@@H](Cc1ccccc1)C(=O)N[C@@H](Cc1c[nH]c2ccccc12)C(=O)NCC(=O)O` [compound 64] (H-MSRVWFLISFWG-OH) displayed an EC50 in data set [1] of 7.5 to 15 µM. Moreover, the viability in data set [2] was determined as 104%. Also, in data set [3], the “β-Cat FP Hill slope” value was found to be 0.7 and the Kd was in the range of 1 to 10 µM.
In the case of `CC[C@H](C)[C@H](NC(=O)[C@@H]1CCCN1C(=O)[C@H](Cc1ccccc1)NC(=O)[C@H](Cc1c[nH]c2ccccc12)NC(=O)[C@H](CCSC)NC(=O)[C@H](CCCNC(=N)N)NC(=O)[C@H](CO)NC(=O)[C@@H](N)CCSC)C(=O)N[C@@H](CO)C(=O)N[C@@H](Cc1ccccc1)C(=O)N[C@@H](Cc1c[nH]c2ccccc12)C(=O)NCC(=O)O` [compound 65] (H-MSRMWFPISFWG-OH), the EC50 in data set [1] is over 30 µM. Further, in data set [2], the viability is 105%. For the same compound, in data set [3], the “β-Cat FP Hill slope” value was determined as 0.7 and the Kd was 1 to 10 µM.
The corresponding values for `CC[C@H](C)[C@H](NC(=O)[C@H](CC(C)C)NC(=O)[C@H](Cc1ccc(O)cc1)NC(=O)[C@H](Cc1c[nH]c2ccccc12)NC(=O)[C@H](CCSC)NC(=O)[C@H](CCCNC(=N)N)NC(=O)[C@H](CO)NC(=O)[C@@H](N)CCSC)C(=O)N[C@@H](CO)C(=O)N[C@@H](Cc1ccccc1)C(=O)N[C@@H](Cc1c[nH]c2ccccc12)C(=O)NCC(=O)O` [compound 66] (H-MSRMWYLISFWG-OH) are 7.5 to 15 µM, 98.6%, 0.7 and 10 to 30 µM.
The corresponding values for `CC[C@H](C)[C@H](NC(=O)[C@H](CC(C)C)NC(=O)[C@H](Cc1ccccc1)NC(=O)[C@H](Cc1c[nH]c2ccccc12)NC(=O)[C@H](CCSC)NC(=O)[C@H](CCCNC(=N)N)NC(=O)CNC(=O)[C@@H](N)CCSC)C(=O)N[C@@H](CO)C(=O)N[C@@H](Cc1ccccc1)C(=O)N[C@@H](Cc1c[nH]c2ccccc12)C(=O)NCC(=O)O` [compound 67] (H-MGRMWFLISFWG-OH) are under 7.5 µM, 101%, 0.99 and 1 to 10 µM.
Compound `CC[C@H](C)[C@H](NC(=O)[C@H](CC(C)C)NC(=O)[C@H](Cc1ccccc1)NC(=O)[C@H](Cc1c[nH]c2ccccc12)NC(=O)[C@H](CCSC)NC(=O)[C@H](CCCNC(=N)N)NC(=O)[C@H](CO)NC(=O)[C@@H](N)CCSC)C(=O)N[C@@H](CO)C(=O)N[C@@H](CC(C)C)C(=O)N[C@@H](Cc1c[nH]c2ccccc12)C(=O)NCC(=O)O` [compound 68] (H-MSRMWFLISLWG-OH) came in with an EC50 in data set [1] of 7.5 to 15 µM. In data set [2], the viability stood at 91.2%. In data set [3], the Kd was over 30 µM.
`CC[C@H](C)[C@H](NC(=O)[C@H](CC(C)C)NC(=O)[C@H](Cc1ccccc1)NC(=O)[C@H](Cc1c[nH]c2ccccc12)NC(=O)[C@H](CCSC)NC(=O)[C@H](CCCNC(=N)N)NC(=O)[C@H](CO)NC(=O)[C@@H](N)CCSC)C(=O)N[C@@H](CO)C(=O)N[C@@H](Cc1ccccc1)C(=O)N[C@@H](CCCNC(=N)N)C(=O)NCC(=O)O` [compound 69] (H-MSRMWFLISFRG-OH): in data set [1], the EC50 is over 30 µM. Further, the viability in data set [2] was determined as 99.7%. Besides, in data set [3], the “β-Cat FP Hill slope” value turned out to be 1.64 and the dissociation constant Kd was under 0.4 µM.
`CSCC[C@H](NC(=O)[C@H](CCCNC(=N)N)NC(=O)[C@H](CO)NC(=O)[C@@H](N)CCSC)C(=O)N[C@@H](Cc1c[nH]c2ccccc12)C(=O)N[C@@H](Cc1ccccc1)C(=O)N[C@@H](CC(C)C)C(=O)N[C@@H](CC(N)=O)C(=O)N[C@@H](CO)C(=O)N[C@@H](Cc1ccccc1)C(=O)N[C@@H](Cc1c[nH]c2ccccc12)C(=O)NCC(=O)O` [compound 70] (H-MSRMWFLNSFWG-OH) gave an EC50 in data set [1] of over 30 µM. In addition, in data set [2], the viability was 98.5%. The Kd in data set [3] was over 30 µM.
`CC[C@H](C)[C@@H]1NC(=O)[C@H](CC(C)C)NC(=O)[C@H]([C@@H](C)CC)NC(=O)[C@H](Cc2c[nH]c3ccccc23)NC(=O)[C@H](CCSC)NC(=O)[C@@H](N)CCCCNC(=O)CNC(=O)[C@H](Cc2c[nH]c3ccccc23)NC(=O)[C@H](Cc2ccccc2)NC(=O)[C@H](CO)NC1=O` [compound 71] (HELM PEPTIDE1{K.M.W.I.L.I.S.F.W.G}$PEPTIDE1,PEPTIDE1,1:R3-10:R2$$$V2.0) came in with an EC50 in data set [1] of over 30 µM. Further, the viability in data set [2] was 93.7%. The Kd in data set [3] is over 30 µM.
In turn, `CC[C@H](C)[C@H](NC(=O)[C@H](CC(C)C)NC(=O)[C@H](Cc1ccccc1)NC(=O)[C@H](Cc1c[nH]c2ccccc12)NC(=O)[C@H](CCSC)NC(=O)[C@H](CCCNC(=N)N)NC(=O)[C@H](CO)NC(=O)[C@@H](N)CCSC)C(=O)N[C@@H](CO)C(=O)N[C@@H](Cc1ccccc1)C(=O)N[C@@H](Cc1c[nH]c2ccccc12)C(N)=O` [compound 72] (H-MSRMWFLISFW-NH2) showed an EC50 in data set [1] of over 30 µM. The viability in data set [2] was 88.6%. The equilibrium dissociation constant (Kd) in data set [3] was over 30 µM.
In data set [1], `CC[C@H](C)[C@H](NC(=O)[C@H](CC(C)C)NC(=O)[C@H](Cc1ccccc1)NC(=O)[C@H](Cc1c[nH]c2ccccc12)NC(=O)[C@H](CCSC)NC(=O)[C@H](CCCNC(=N)N)NC(=O)[C@@H](NC(=O)[C@@H](N)CCSC)[C@@H](C)O)C(=O)N[C@@H](CO)C(=O)N[C@@H](Cc1ccccc1)C(=O)N[C@@H](Cc1c[nH]c2ccccc12)C(N)=O` [compound 73] (H-MTRMWFLISFW-NH2) showed an EC50 of over 30 µM. Moreover, the viability in data set [2] came to 97.3%. Moreover, the Kd in data set [3] was over 30 µM.
In data set [1], `CC[C@H](C)[C@H](NC(=O)[C@H](CC(C)C)NC(=O)[C@H](Cc1ccccc1)NC(=O)[C@H](Cc1c[nH]c2ccccc12)NC(=O)[C@H](CCSC)NC(=O)[C@H](CCCNC(=N)N)NC(=O)[C@H](CCC(N)=O)NC(=O)[C@@H](N)CCSC)C(=O)N[C@@H](CO)C(=O)N[C@@H](Cc1ccccc1)C(=O)N[C@@H](Cc1c[nH]c2ccccc12)C(N)=O` [compound 74] (H-MQRMWFLISFW-NH2) gave an EC50 of over 30 µM. In addition, the viability in data set [2] worked out at 91.2%. In addition, the Kd in data set [3] is over 30 µM.
Take `CC[C@H](C)[C@H](NC(=O)[C@H](CC(C)C)NC(=O)[C@H](Cc1ccccc1)NC(=O)[C@H](Cc1c[nH]c2ccccc12)NC(=O)[C@H](CCCNC(=N)N)NC(=O)[C@H](CCCNC(=N)N)NC(=O)[C@H](CO)NC(=O)[C@@H](N)CCSC)C(=O)N[C@@H](CO)C(=O)N[C@@H](Cc1ccccc1)C(=O)N[C@@H](Cc1c[nH]c2ccccc12)C(N)=O` [compound 75] (H-MSRRWFLISFW-NH2): the EC50 in data set [1] is over 30 µM. Besides, the viability in data set [2] was determined as 99.2%. In data set [3], the Kd was over 30 µM.
Regarding `CC[C@H](C)[C@H](NC(=O)[C@H](CC(C)C)NC(=O)[C@H](Cc1ccccc1)NC(=O)[C@H](Cc1c[nH]c2ccccc12)NC(=O)[C@@H](NC(=O)[C@H](CCCNC(=N)N)NC(=O)[C@H](CO)NC(=O)[C@@H](N)CCSC)[C@@H](C)O)C(=O)N[C@@H](CO)C(=O)N[C@@H](Cc1ccccc1)C(=O)N[C@@H](Cc1c[nH]c2ccccc12)C(N)=O` [compound 76] (H-MSRTWFLISFW-NH2), in data set [1], the EC50 was over 30 µM. Also, the viability in data set [2] was 105%. The Kd in data set [3] was over 30 µM.
As to `CC[C@H](C)[C@H](NC(=O)[C@H](CC(C)C)NC(=O)[C@H](Cc1ccccc1)NC(=O)[C@H](Cc1c[nH]c2ccccc12)NC(=O)[C@H](Cc1ccccc1)NC(=O)[C@H](CCCNC(=N)N)NC(=O)[C@H](CO)NC(=O)[C@@H](N)CCSC)C(=O)N[C@@H](CO)C(=O)N[C@@H](Cc1ccccc1)C(=O)N[C@@H](Cc1c[nH]c2ccccc12)C(N)=O` [compound 77] (H-MSRFWFLISFW-NH2), in data set [1], the EC50 was over 30 µM. The viability in data set [2] stood at 107%. For the same compound, the Kd in data set [3] is over 30 µM.
